# According to patent US4086219A, “Nonapeptides and methods for their production” (Parke, Davis & Company, priority 1976, dated 1978):
# Where “and” joins values, the source holds several entries; their conditions need not be identical. Equal values may be shown once. Square brackets hold non-standard residues; d marks the D form. Peptide text beside a SMILES is read from it. * marks the point of attachment. X1 = COc1ccc(COC(=O)*)cc1; Cbz = O=C(OCc1ccccc1)*; Boc = CC(C)(C)OC(=O)*; Bn = c1ccc(C*)cc1
# System: LRF-induced luteinizing hormone (LH) release
# Test: In vitro LRF antagonist test in rat anterior pituitary cell cultures
# Assay type: cell-based
# Method: Nonapeptides of this invention are screened for LRF antagonist activity in vitro using rat anterior pituitary cell cultures as described by Vale et al. [Endocrinology, 91, 562 (1972)]. The inhibition of LRF-induced luteinizing hormone (LH) release into the culture medium is the endpoint in this in vitro bioassay. Active peptides are then tested in vivo by the procedures of Humphrey et al. [Endocrinology, 92, 1515 (1972)]. Antagonist activity is asessed by the inhibition of LRF-induced LH release in the female rat and LRF-induced ovulation in the rabbit.
# [1] = Molar Conc. 1.2 × 10^-8, LRF 3.5 × 10^-10
# [2] = Molar Conc. 2 × 10^-8, LRF 3.5 × 10^-10
# [3] = Molar Conc. 2 × 10^-9, LRF 3.5 × 10^-10
# [4] = Molar Conc. 4 × 10^-8, LRF 3.5 × 10^-10
# [5] = Molar Conc. 4 × 10^-9, LRF 3.5 × 10^-10
# [6] = Molar Conc. 7 × 10^-8, LRF 3.5 × 10^-10
# [7] = Molar Conc. 7 × 10^-9, LRF 3.5 × 10^-10
# [8] = Molar Conc. 1 × 10^-5, LRF 5 × 10^-10, first series (LRF Control 71.56)
# [9] = Molar Conc. 1 × 10^-6, LRF 5 × 10^-10, first series (LRF Control 71.56)
# [10] = Molar Conc. 1 × 10^-7, LRF 5 × 10^-10, first series (LRF Control 71.56)
# [11] = Molar Conc. 1 × 10^-8, LRF 5 × 10^-10, first series (LRF Control 71.56)
# [12] = Molar Conc. 1 × 10^-8, LRF 5 × 10^-10, second series of the compound
# [13] = Molar Conc. 1 × 10^-9, LRF 5 × 10^-10, second series of the compound
# [14] = Molar Conc. 2.5 × 10^-9, LRF 5 × 10^-10, second series of the compound
# [15] = Molar Conc. 5 × 10^-9, LRF 5 × 10^-10, second series of the compound
# [16] = Molar Conc. 1 × 10^-9, LRF 3.5 × 10^-10
# [17] = Molar Conc. 1 × 10^-10, LRF 3.5 × 10^-10
# [18] = Molar Conc. 2 × 10^-10, LRF 3.5 × 10^-10
# [19] = Molar Conc. 3.5 × 10^-9, LRF 3.5 × 10^-10
# [20] = Molar Conc. 3.5 × 10^-10, LRF 3.5 × 10^-10
# [21] = Molar Conc. 6 × 10^-9, LRF 3.5 × 10^-10
# [22] = Molar Conc. 6 × 10^-10, LRF 3.5 × 10^-10
# [23] = Molar Conc. 2.5 × 10^-10, LRF 5 × 10^-10, second series of the compound
# [24] = Molar Conc. 5 × 10^-10, LRF 5 × 10^-10, second series of the compound
# [25] = Molar Conc. 1 × 10^-8, LRF 3.5 × 10^-10
# [26] = Molar Conc. 2.5 × 10^-8, LRF 3.5 × 10^-10
# [27] = Molar Conc. 2.5 × 10^-9, LRF 3.5 × 10^-10
# [28] = Molar Conc. 2.5 × 10^-10, LRF 3.5 × 10^-10
# [29] = Molar Conc. 6 × 10^-8, LRF 3.5 × 10^-10
molecule,measurement,setting,value
CC(C)C[C@H](NC(=O)[C@@H](Cc1ccccc1)NC(=O)[C@H](Cc1ccc(O)cc1)NC(=O)[C@H](CO)NC(=O)[C@H](Cc1c[nH]c2ccccc12)NC(=O)[C@H](CCC(N)=O)NC(=O)OCc1ccccc1)C(=O)N[C@@H](CCCNC(=N)N)C(=O)N1CCC[C@H]1C(=O)NCC(N)=O [N^α -Benzyloxycarbonyl-L-glutaminyl-L-tryptophyl-L-seryl-L-tyrosyl-D-phenylalanyl-L-leucyl-L-arginyl-L-prolyl-glycinamide] (Cbz-QWSY[dF]LRPG-NH2),% LH Release Inhibition,[1],71%
same,LH Value,[1],13.47 ng/mL
same,% LH Release Inhibition,[2],90%
same,LH Value,[2],10.07 ng/mL
same,% LH Release Inhibition,[3],21%
same,LH Value,[3],22.43 ng/mL
same,% LH Release Inhibition,[4],91%
same,LH Value,[4],9.79 ng/mL
same,% LH Release Inhibition,[5],30%
same,LH Value,[5],20.76 ng/mL
same,% LH Release Inhibition,[6],93%
same,LH Value,[6],9.49 ng/mL
same,% LH Release Inhibition,[7],42%
same,LH Value,[7],18.60 ng/mL
CC[C@H](C)[C@H](NC(=O)OCc1ccccc1)C(=O)N[C@@H](Cc1c[nH]c2ccccc12)C(=O)N[C@@H](CO)C(=O)N[C@@H](Cc1ccc(O)cc1)C(=O)N[C@H](Cc1c[nH]c2ccccc12)C(=O)N[C@@H](CC(C)C)C(=O)N[C@@H](CCCNC(=N)N)C(=O)N1CCC[C@H]1C(=O)NCC(N)=O [N^α -Benzyloxycarbonyl-L-isoleucyl-L-tryptophyl-L-seryl-L-tyrosyl-D-tryptophyl-L-leucyl-L-arginyl-L-prolyl-glycinamide] (Cbz-IWSY[dW]LRPG-NH2),% LH Release Inhibition,[8],96%
same,LH Value,[8],20.69 ng/mL
same,% LH Release Inhibition,[9],96%
same,LH Value,[9],20.24 ng/mL
same,% LH Release Inhibition,[10],96%
same,LH Value,[10],20.50 ng/mL
same,% LH Release Inhibition,[11],95%
same,LH Value,[11],21.04 ng/mL
same,% LH Release Inhibition,[12],98%
same,LH Value,[12],14.00 ng/mL
same,% LH Release Inhibition,[13],41%
same,LH Value,[13],36.46 ng/mL
same,% LH Release Inhibition,[14],70%
same,LH Value,[14],24.96 ng/mL
same,% LH Release Inhibition,[15],87%
same,LH Value,[15],18.49 ng/mL
CC(C)C[C@H](NC(=O)[C@@H](Cc1ccccc1)NC(=O)[C@H](Cc1ccc(O)cc1)NC(=O)[C@H](CO)NC(=O)[C@H](Cc1c[nH]c2ccccc12)NC(=O)[C@H](COCc1ccccc1)NC(=O)OCc1ccccc1)C(=O)N[C@@H](CCCNC(=N)N)C(=O)N1CCC[C@H]1C(=O)NCC(N)=O.Cl [N^α -Benzyloxycarbonyl-O-benzyl-L-seryl-L-tryptophyl-L-seryl-L-tyrosyl-D-phenylalanyl-L-leucyl-L-arginyl-L-prolyl-glycinamide hydrochloride] (Cbz-S(Bn)WSY[dF]LRPG-NH2),% LH Release Inhibition,[16],56%
same,LH Value,[16],17.85 ng/mL
same,% LH Release Inhibition,[17],0%
same,LH Value,[17],34.50 ng/mL
same,% LH Release Inhibition,[3],88%
same,LH Value,[3],9.84 ng/mL
same,% LH Release Inhibition,[18],14%
same,LH Value,[18],28.47 ng/mL
same,% LH Release Inhibition,[19],99%
same,LH Value,[19],6.96 ng/mL
same,% LH Release Inhibition,[20],36%
same,LH Value,[20],23.09 ng/mL
same,% LH Release Inhibition,[21],109%
same,LH Value,[21],4.59 ng/mL
same,% LH Release Inhibition,[22],52%
same,LH Value,[22],18.89 ng/mL
COc1ccc(COC(=O)N[C@@H](COCc2ccccc2)C(=O)N[C@@H](Cc2c[nH]c3ccccc23)C(=O)N[C@@H](CO)C(=O)N[C@@H](Cc2ccc(O)cc2)C(=O)N[C@H](Cc2ccccc2)C(=O)N[C@@H](CC(C)C)C(=O)N[C@@H](CCCNC(=N)N)C(=O)N2CCC[C@H]2C(=O)NCC(N)=O)cc1.Cl [N^α -p-Methoxybenzyloxycarbonyl-O-benzyl-L-seryl-L-tryptophyl-L-seryl-L-tyrosyl-D-phenylalanyl-L-leucyl-L-arginyl-L-prolyl-glycinamide hydrochloride] (X1-S(Bn)WSY[dF]LRPG-NH2),% LH Release Inhibition,[10],99%
same,LH Value,[10],18.59 ng/mL
same,% LH Release Inhibition,[11],105%
same,LH Value,[11],15.95 ng/mL
same,% LH Release Inhibition,[12],88%
same,LH Value,[12],16.01 ng/mL
same,% LH Release Inhibition,[13],41%
same,LH Value,[13],32.94 ng/mL
same,% LH Release Inhibition,[23],35%
same,LH Value,[23],34.87 ng/mL
same,% LH Release Inhibition,[24],52%
same,LH Value,[24],28.95 ng/mL
CC(C)C[C@H](NC(=O)[C@@H](Cc1c[nH]c2ccccc12)NC(=O)[C@H](Cc1ccc(O)cc1)NC(=O)[C@H](CO)NC(=O)[C@H](Cc1c[nH]c2ccccc12)NC(=O)[C@H](COCc1ccccc1)NC(=O)OC(C)(C)C)C(=O)N[C@@H](CCCNC(=N)N)C(=O)N1CCC[C@H]1C(=O)NCC(N)=O [N^α -t-Butoxycarbonyl-O-benzyl-L-seryl-L-tryptophyl-L-seryl-L-tyrosyl-D-tryptophyl-L-leucyl-L-arginyl-L-prolyl-glycinamide] (Boc-S(Bn)WSY[dW]LRPG-NH2),% LH Release Inhibition,[25],104%
same,LH Value,[25],8.96 ng/mL
same,% LH Release Inhibition,[16],64%
same,LH Value,[16],21.44 ng/mL
same,% LH Release Inhibition,[26],104%
same,LH Value,[26],8.95 ng/mL
same,% LH Release Inhibition,[27],72%
same,LH Value,[27],18.85 ng/mL
same,% LH Release Inhibition,[28],39%
same,LH Value,[28],29.05 ng/mL
same,% LH Release Inhibition,[29],108%
same,LH Value,[29],7.80 ng/mL
same,% LH Release Inhibition,[21],99%
same,LH Value,[21],10.64 ng/mL
same,% LH Release Inhibition,[22],50%
same,LH Value,[22],25.53 ng/mL
"LRF: luteinizing hormone releasing factor, also called luteinizing hormone releasing hormone (LH-RH); stimulates secretion of luteinizing hormone from the anterior pituitary (QHWSYGLRPG; Gonadoliberin-1; UniProt P01148 24-33, looked up) [reference compound]",LH Value,"LRF alone, Molar Conc. 3.5 × 10^-10 (control of each series)",26.23 ng/mL and 40.92 ng/mL and 32.11 ng/mL
same,LH Value,"LRF alone, Molar Conc. 5 × 10^-10 (control of each series)",71.56 ng/mL and 47.31 ng/mL and 52.80 ng/mL
